Test results taken from patent publication US10584132B2, “SHMT inhibitors” (The Trustees of Princeton University, priority 2016, dated 2020).
Each block holds one compound with its values, some of them ahead of it.

Legend:
human SHMT2 = human SHMT2 (Homo sapiens (Human), UniProt P34897); test: SHMT2 in vitro enzymatic assay (coupled with excess MTHFD2, NADH absorption at 340 nm); format: biochemical
Description: (§2) For the SHMT1 and SHMT2 in vitro enzymatic assays, the rate of 5,10-methylene tetrahydrofolate formation catalyzed by SHMT1/2 was indirectly evaluated by coupling with excess MTHFD2, which converts NAD+ to NADH allowing for reaction monitoring by absorption at 340 nm. […] Inhibition of initial reaction velocity was determined by adding various inhibitors at different concentrations and monitored as described. IC50 may be calculated based on this assay.

HCT-116 WT cells = test: Cell growth assay (resazurin), HCT-116 wild type, with or without formate; format: cell-based, human; details: for rescue of effects on cell growth by addition of formate: HCT-116, formate
Description: (§1) The described cell lines for Examples 8 and 9 are cultured in 96-well plates in Dulbecco's modified eagle media (DMEM) without pyruvate (CELLGRO) with 10% dialysed fetal bovine serum (Invitrogen) in 5% CO2 at 37° C. Approximately 2,500 cells are plated in each well in 90 uL of media. After 24 hours cells are treated with various concentrations of inhibitor (time=0 hours), with or without formate. Growth was assessed at multiple time points (time=0, 24, 48, 72 hours) through measurement of fluorescence at 595 nm (excitation at 535 nm) on a BioTek micro titer plate reader after incubation with resazurin (0.01 mg/mL for 1.5 hours). IC50 curves are generated from percent inhibition of growth at 72 hours.

Su-DHL-4 cells [1] = test: Growth of Su-DHL-4 cells in RPMI; format: cell-based, human; details: for cell growth (or death) over 48 h: Su-DHL-4, 5 μM
Description: Cells were stained with propidium iodide and FITC conjugated Annexin V. 10,000 events shown. […] All conditions included at least normal media glycine (10 mg/L) (mean±SD, n=3).
Co-culture with 1 mM formate restores nucleotide levels selectively in Jurkat cells (mean±SD, n=3-6). […] Note the low uptake in Su-DHL-4 cells (gly=glycine, GSH=glutathione) (mean±SD, n=3). […] The SHMT reaction makes two products, 5,10-methyleneTHF and glycine. When SHMT is inhibited, exogenous formate can be incorporated into the 1C cycle whereas in B-cells poor glycine uptake limits the ability of extracellular glycine to rescue. Strategies that further stress glycine availability augment the efficacy of SHMT inhibition.

Su-DHL-4 cells [2] = test: Apoptosis by flow cytometry (Annexin V surface staining), Su-DHL-4; format: cell-based, human; details: for apoptotic fraction of cells: 24 hours
Excerpt: Apoptosis was enhanced by co-treatment with formate. In contrast, as expected, formate rescued Jurkat E6-1 leukemia cells from apoptosis (FIG. 11C). Without wishing to be bound by theory, it is hypothesized that the failure of formate to rescue growth in the DLBCL cell lines is due to a requirement for both glycine and 1C units made by SHMT in these cells. When glycine is limiting, formate can enhance the cytotoxicity of SHMT inhibition. […] Mechanistically, by supplying 5,10-methylene-THF, formate may drives residual SHMT enzymatic function in the […] direction.
In contrast, cell growth is further decreased in Su-DHL4 cells by addition of formate. This can be further exacerbated by removal of glycine from the media. […] Using flow cytometry, apoptosis of Su-DHL4 cells were studied with AnnexinV surface staining (FIGS. 12D and 12E).

8988T cells = test: Growth of pancreatic cancer cell line 8988T; format: cell-based, human
human SHMT1 = human SHMT1 (Homo sapiens (Human), UniProt P34896); test: SHMT1 in vitro enzymatic assay (coupled with excess MTHFD2, NADH absorption at 340 nm); format: biochemical
Sequence of human SHMT1 (P34896 whole entry): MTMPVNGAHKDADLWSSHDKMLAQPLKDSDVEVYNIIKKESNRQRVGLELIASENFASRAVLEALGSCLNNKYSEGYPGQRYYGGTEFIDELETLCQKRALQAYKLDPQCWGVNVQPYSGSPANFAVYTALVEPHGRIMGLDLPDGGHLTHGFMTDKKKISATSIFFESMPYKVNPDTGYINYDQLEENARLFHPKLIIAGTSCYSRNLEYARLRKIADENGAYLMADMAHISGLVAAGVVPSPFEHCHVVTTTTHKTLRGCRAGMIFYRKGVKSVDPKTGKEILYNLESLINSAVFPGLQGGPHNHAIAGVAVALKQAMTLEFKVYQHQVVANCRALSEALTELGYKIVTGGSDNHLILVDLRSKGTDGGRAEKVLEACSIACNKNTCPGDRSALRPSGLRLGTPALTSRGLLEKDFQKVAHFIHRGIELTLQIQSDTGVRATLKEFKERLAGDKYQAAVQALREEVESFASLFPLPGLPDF
Description: as §2

LogP Value = format: physicochemical
HCT-116 ΔSHMT2 cells = test: Cell growth assay, HCT-116 SHMT2 deletion (knock-out) cells; format: cell-based, human
Description: as §1
Clonal deletion cell lines of SHMT1, SHMT2, and SHMT1/2 were generated from the human colorectal carcinoma cell line HCT-116. Paired Cas9 nickase (Cas9n) containing constructs that encoded single-guide RNA sequences targeting SHMT1 or 2 were transiently transfected into cells, and mutant colonies from single clones were picked as described in Ducker et al., (2016) Reversal of Cytosolic One-Carbon Flux Compensates for Loss of the Mitochondrial Folate Pathway, Cell Metab 23, 1140-1153. SHMT1 deletion had no effect on cell growth either in cell culture or as subcutaneous xenografts in nude mice. In contrast, SHMT2 deletion cells grew slower in culture and as xenografts (FIG. 8A).

Liver microsome assay = format: in vitro ADME; details: pooled male mouse liver microsomes, 2 μM
Description: The following master solution was prepared before compound addition:
Two separate experiments were performed as follows: a) With Cofactors (NADPH and UDPGA): 40 μL of 10 mM NADPH and 40 μL of 20 mM UDPGA were added to the incubations. The final concentrations of microsomes, NADPH and UDPGA were 0.5 mg/mL, 1 mM and 2 mM, respectively. b) Without Cofactors (NADPH and UDPGA): 10 μL of 20 mg/mL liver microsomes and 80 μL of ultra-pure water were added to the incubations. The final concentration of microsomes was 0.5 mg/mL. The mixture was pre-warmed at 37° C. for 5 minutes.
The reaction was started with the addition of 4 μL of 200 μM control compound or test compound solution. Verapamil was used as positive control in this study. The final concentration of test compound or control compound was 2 μM. The incubation solution was incubated in water bath at 37° C. Aliquots of 50 μL were taken from the reaction solution at 0.5, 5, 15, 30, 45 and 60 minutes. The reaction was stopped by the addition of 5 volumes of cold acetonitrile with IS (100 nM alprazolam, 200 nM caffeine and 100 nM tolbutamide). Samples were centrifuged at 3,220 g for 40 minutes. Aliquot of 100 μL of the supernatant was mixed with 100 μL of ultra-pure H2O and then used for LC-MS/MS analysis. The in vitro half-life (in vitro t1/2) was determined from the slope value of the LC-MS signal of the test compound.

Sequence of human SHMT2 (P34897 30-504): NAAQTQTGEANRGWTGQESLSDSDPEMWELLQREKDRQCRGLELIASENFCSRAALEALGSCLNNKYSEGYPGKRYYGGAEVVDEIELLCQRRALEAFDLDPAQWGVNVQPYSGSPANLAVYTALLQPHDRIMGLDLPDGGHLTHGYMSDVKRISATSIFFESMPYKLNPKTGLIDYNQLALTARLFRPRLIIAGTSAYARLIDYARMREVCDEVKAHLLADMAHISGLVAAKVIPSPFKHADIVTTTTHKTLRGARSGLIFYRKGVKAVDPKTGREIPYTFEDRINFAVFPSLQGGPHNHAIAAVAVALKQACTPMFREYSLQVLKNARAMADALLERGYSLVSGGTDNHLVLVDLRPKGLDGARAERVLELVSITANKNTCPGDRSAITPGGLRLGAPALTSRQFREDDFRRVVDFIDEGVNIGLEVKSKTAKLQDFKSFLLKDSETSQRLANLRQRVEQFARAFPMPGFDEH

Structure (SMILES): Cc1n[nH]c2c1C(c1cc(CO)cc(-c3ccccc3)c1)(C(C)C)C(C#N)=C(N)O2 (centres unmarked) [HK-X2]
- rescue of effects on cell growth by addition of formate (HCT-116 WT cells): rescued
- IC70 (Su-DHL-4 cells [1]; SU-DHL4, RPMI): 5000 nM
- cell growth (or death) over 48 h (Su-DHL-4 cells [1]; formate (1 mM) added): fully cytostatic
- cell growth (or death) over 48 h (Su-DHL-4 cells [1]; formate added and glycine removed): significant cell death
- apoptotic fraction of cells (Su-DHL-4 cells [2]; Su-DHL4, inhibitor alone): 8%
- apoptotic fraction of cells (Su-DHL-4 cells [2]; Su-DHL4, inhibitor in the presence of formate): 15%
- apoptosis measured by Annexin V surface staining (Su-DHL-4 cells [2]; Su-DHL-4, co-treatment with formate): enhanced
- apoptosis measured by Annexin V surface staining (Su-DHL-4 cells [2]; Su-DHL-4, inhibitor alone): induced apoptosis
- concentration that impairs cell growth (8988T cells): < 100 nM

Structure (SMILES): Cc1n[nH]c2c1C(c1cc(C#N)cc(C#CCCC(=O)O)c1)(C(C)C)C(C#N)=C(N)O2 (centres unmarked) [Compound 68]
- logP (LogP Value): 2.37

Structure (SMILES): Cc1n[nH]c2c1C(c1cc(C#CCCCO)cc(C(F)(F)F)c1)(C(C)C)C(C#N)=C(N)O2 (centres unmarked) [Compound 61, 6-amino-4-(3-(5-hydroxypent-1-yn-1-yl)-5-(trifluoromethyl)phenyl)-4-isopropyl-3-methyl-1,4-dihydropyrano[2,3-c]pyrazole-5-carbonitrile]
- inhibition of growth (proliferation) of HCT116 cells (HCT-116 WT cells; native HCT116): inhibited growth
- inhibition of growth of SHMT2 knock-out HCT116 cells versus native (HCT-116 ΔSHMT2 cells): increased potency

Structure (SMILES): Cc1n[nH]c2c1C(c1cc(C#CCCCO)cc(CO)c1)(C(C)C)C(C#N)=C(N)O2 (centres unmarked) [Compound 74]
- CLint (replicate 2) (Liver microsome assay): 67.96 μL/min/mg protein

Structure (SMILES): Cc1n[nH]c2c1C(c1cc(C#N)cc(C#CCCCO)c1)(C(C)C)C(C#N)=C(N)O2 (centres unmarked) [Compound 71]
- logP (LogP Value): 2.89

Structure (SMILES): Cc1n[nH]c2c1C(c1cc(C#CCCC(=O)N[C@@H](CCC(=O)O)C(=O)O)cc(C(F)(F)F)c1)(C(C)C)C(C#N)=C(N)O2 (some centres unmarked) [Compound 69]
- logP (LogP Value): 2.49

Structure (SMILES): Cc1n[nH]c2c1C(c1cc(C#CCCC(=O)O)cc(C(F)(F)F)c1)(C(C)C)C(C#N)=C(N)O2 (centres unmarked) [Compound 4]
- logP (LogP Value): 3.56

Structure (SMILES): Cc1n[nH]c2c1C(c1cc(N3CCCC3)cc(C(F)(F)F)c1)(C(C)C)C(C#N)=C(N)O2 (centres unmarked) [HK-X1]
- IC50 (human SHMT1): 13 nM
- rescue of effects on cell growth by addition of formate (HCT-116 WT cells): rescued
- IC50 (human SHMT2): 66 nM

Structure (SMILES): Cc1n[nH]c2c1C(c1cc(C#CCCCN)cc(C(F)(F)F)c1)(C(C)C)C(C#N)=C(N)O2 (centres unmarked) [Compound 8]
- logP (LogP Value): 2.72

Structure (SMILES): Cc1n[nH]c2c1C(c1cc(C#CCCC(N)=O)cc(C(F)(F)F)c1)(C(C)C)C(C#N)=C(N)O2 (centres unmarked) [Compound 11]
- logP (LogP Value): 3.22

Further lines, results first:

- IC50 (human SHMT2): 3460 nM
Structure (SMILES): COc1cc(Cl)cc(C2(C3CCC3)C(C#N)=C(N)Oc3[nH]nc(C)c32)c1 (centres unmarked) [HK-9]

- IC50 (human SHMT2): 1190 nM
Structure (SMILES): Cc1n[nH]c2c1C(c1cccc(Cl)c1)(C1CCC1)C(C#N)=C(N)O2 (centres unmarked) [HK-3]

- IC50 (human SHMT1): 67 nM
- IC50 (human SHMT2): 131 nM
Structure (SMILES): Cc1n[nH]c2c1C(c1cc(Cl)cc(Cl)c1)(C(C)C)C(C#N)=C(N)O2 (centres unmarked) [HK-14]

- IC50 (human SHMT2): 500 nM
Structure (SMILES): COc1cc(Cl)cc(C2(C(C)C)C(C#N)=C(N)Oc3[nH]nc(C)c32)c1 (centres unmarked) [HK-13]

- IC50 (human SHMT1): 593 nM
- IC50 (human SHMT2): 1190 nM
Structure (SMILES): Cc1n[nH]c2c1C(c1cc(Cl)cc(Cl)c1)(C1CCC1)C(C#N)=C(N)O2 (centres unmarked) [HK-10]

- IC50 (human SHMT2): 400 nM
Structure (SMILES): Cc1n[nH]c2c1C(c1cccc(Cl)c1)(C(C)C)C(C#N)=C(N)O2 (centres unmarked) [HK-7]

- IC50 (human SHMT2): 100 nM
Structure (SMILES): Cc1n[nH]c2c1C(c1cc(Cl)cc(C(F)(F)F)c1)(C1CCC1)C(C#N)=C(N)O2 (centres unmarked) [HK-11]

- IC50 (human SHMT2): 4580 nM
Structure (SMILES): COc1cccc(C2(C(C)C)C(C#N)=C(N)Oc3[nH]nc(C)c32)c1 (centres unmarked) [HK-6]

- IC50 (human SHMT1): 20 nM
- IC50 (human SHMT2): 35 nM
Structure (SMILES): Cc1n[nH]c2c1C(c1cc(Cl)cc(C(F)(F)F)c1)(C(C)C)C(C#N)=C(N)O2 (centres unmarked) [HK-15]

- IC50 (human SHMT1): 206 nM
- IC50 (human SHMT2): 168 nM
Structure (SMILES): Cc1n[nH]c2c1C(c1cc(C(F)(F)F)cc(C(F)(F)F)c1)(C1CCC1)C(C#N)=C(N)O2 (centres unmarked) [HK-12]
